Results published in PubChem BioAssay AID588620 (NMMLSC, 2011).
Calls of active or inactive are those of the source.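 The calls were made as follows: active = fitted half-maximal concentration below 30 µM for cell fluorescence in pump-free yeast, so likely self-fluorescent; inactive = the rest.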

Assay: concentration-dependent intrinsic compound fluorescence, S. cerevisiae AD/pABC3, flow cytometry, Cherry Pick1 hits, artefact control for antifungal efflux pump inhibitor project, dose response (AID 588620);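 also: red emission of unstained cells excited at 488 nm measured in PE-Texas Red channel; cell median fluorescence as percent of DMSO wells so 100% equals vehicle baseline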
Settings: S. cerevisiae AD/pABC3 compound autofluorescence, flow cytometry; at 33.1 µM (top of the series)

Row | Compound | fluorescence response, % of control
1 | CC(C)(C)C(=O)CSc1nc2c(c(-c3cccs3)c1C#N)CCC2 | 92.4% (inactive)
2 | Cc1sc2ncnc(SC(C)C(=O)N3c4ccccc4Sc4ccccc43)c2c1C (stereo not given) | 126% (inactive)
3 | COc1ccc(/C=c2\s/c(=C/C(=O)c3ccc(C)cc3)[nH]c2=O)c(OC)c1 | 98.7% (inactive)
4 | COc1cc2c(cc1OC)C(=O)N1[C@H]3c4cc(C)ccc4OC[C@@H]3[C@H](c3ccccc3)[C@]1(C)C(=O)N2 | 99.3% (inactive)
5 | Cc1ccc(C(=O)N2CCC3(CC2)Oc2ccc(Cl)cc2C(=O)C32CC(c3ccc(Cl)cc3)=NO2)s1 (stereo not given) | 94.5% (inactive)
6 | O=C(c1ccoc1)N1CCC2(CC1)Oc1ccc(F)cc1C(=O)C21CC(c2ccccc2)=NO1 (stereo not given) | 85.1% (inactive)
7 | COC(=O)C1=C(C)N=c2s/c(=C/c3ccoc3)c(=O)n2C1c1ccccc1 (stereo not given) | 821% (inactive)
8 | CC(CCc1ccccc1)NC(=O)c1ccc(NC(=O)c2cccc(Br)c2)cc1 (stereo not given) | 88.6% (inactive)
9 | CC1(C)CC2(CC(c3cccs3)c3cc(Cl)c(O)cc3O2)NC(=S)N1 (stereo not given) | 113% (inactive)
10 | O=C1C(Cc2ccccc2)Nc2ncnc(N3CCN(c4ccccc4)CC3)c2N1Cc1ccc(Br)cc1 (stereo not given) | 116% (inactive)
11 | Cc1ccc(C(=O)N2CCC3(CC2)Oc2ccc(Cl)cc2C(=O)C32CC(c3cccnc3)=NO2)s1 (stereo not given) | 127% (inactive)
12 | CCC(=O)N1CCN(c2ccc(Cl)cc2NC(=O)c2ccc3c(c2)OCCO3)CC1 | 99.8% (inactive)
13 | O=C(COC(=O)c1ccc(S(=O)(=O)N2CCCCC2)cc1)NCc1ccco1 | 91.7% (inactive)
14 | CCSc1cc(N2CCOCC2)nc(-c2ccccc2)n1 | 89.7% (inactive)
15 | COc1cccc(-c2sc3ccc(OC)cc3c2-c2ccc(OCCN(C)C)cc2)c1 | 126% (inactive)
16 | c1cc2c(cc1C1CCCCC1)c1c3n2CCCNC3CCC1 (stereo not given) | 132% (inactive)
17 | CCCCCc1cc(=O)oc2c(C(CCN3CCCC(C)C3)c3ccc(N(C)C)cc3)c(OC)cc(OC)c12 (stereo not given) | 94.5% (inactive)
18 | CC(C)C(=O)N1CCC2(CC1)Oc1ccc(F)cc1C(=O)C21CC(c2ccccc2)=NO1 (stereo not given) | 115% (inactive)
19 | Cc1cc(C(=O)NC2CC(C)(C)Cc3c2cnn3-c2ccc(F)cc2)no1 (stereo not given) | 98.7% (inactive)
20 | COc1ccc(/C=N/N=C2/NC(=O)C(CC(=O)O)S2)cc1OCc1ccc(Cl)cc1 (stereo not given) | 91.7% (inactive)
21 | COc1ccc(-c2sc3ccc(OC)cc3c2-c2ccc(OCCN3CCOCC3)cc2)cc1 | 96.3% (inactive)
22 | CC(C)c1ccc(/C=c2\sc3nc(-c4ccncc4)nn3c2=O)cc1 | 82.5% (inactive)
23 | Nc1c(Cl)cc(C2=NCCn3nc4ccccc4c32)cc1Cl | 88.6% (inactive)
24 | Cc1ccc(C)c(N2CCN(C(=O)C3CCCN(c4ncnc5c4nc4n5CCCCC4)C3)CC2)c1 (stereo not given) | 89.1% (inactive)
25 | N#CC(C(=O)NCc1ccccc1)c1nc2ccccc2nc1N1CCCC1 (stereo not given) | 102% (inactive)
26 | Cc1ccsc1-c1nc(C(N)=O)c2[nH]c(=O)n(-c3ccc(Cl)cc3)c2n1 | 102% (inactive)
27 | CCC(=O)NC(c1ccco1)c1cc(Cl)c2cccnc2c1O (stereo not given) | 99.8% (inactive)

Row | Compound | fluorescence response, % of control
28 | COc1ccc(-c2nc3ccccc3c(=O)n2CCOc2cc(C)ccc2C)cc1 | 135% (inactive)
29 | O=C(NC1CCCCC1)c1cc2ccccc2cc1O | 78.8% (inactive)
30 | O=C(c1ccoc1)N1CCC2(CC1)Oc1ccc(F)cc1C(=O)C21CC(c2ccc(Cl)cc2)=NO1 (stereo not given) | 116% (inactive)
31 | COc1ccc(-n2ncc3c2CC(C)(C)CC3NC(=O)c2cn[nH]c2)cc1 (stereo not given) | 110% (inactive)
32 | NC(=O)c1nc(-c2ccco2)nc2c1[nH]c(=O)n2-c1ccc(Cl)c(Cl)c1 | 112% (inactive)
33 | Cc1ccccc1S(=O)(=O)Nc1nc2ccccc2nc1N1CCc2ccccc2C1 | 103% (inactive)
34 | CCOc1ccccc1-c1nc(C(N)=O)c2[nH]c(=O)n(-c3ccc(F)cc3)c2n1 | 136% (inactive)
35 | O=C(CSc1nnc(Cc2cccs2)n1Cc1ccco1)Nc1ccc(Br)cc1 | 86% (inactive)
36 | COc1ccc(NC(=O)Nc2cccc3c2O[C@H](CN(C)C(=O)NC2CCCCC2)[C@@H](C)CN([C@H](C)CO)C3=O)cc1 | 80.3% (inactive)
37 | COc1ccc(-c2[nH]c(-c3ccc4c(c3)OCO4)nc2-c2ccccc2)cc1 | 80.8% (inactive)
38 | Cc1ccc(-c2cc(C(=O)Nc3ccc(S(=O)(=O)Nc4onc(C)c4C)cc3)c3ccccc3n2)cc1 | 88.3% (inactive)
39 | COc1ccc(-n2ncc3c2CC(C)(C)CC3NC(=O)c2cnc(C)cn2)cc1 (stereo not given) | 99.3% (inactive)
40 | Cc1cc(C(=O)COC(=O)c2ccc[nH]c2=O)c(C)n1-c1ccc(F)cc1 | 102% (inactive)
41 | O=C(NCC1CCCO1)c1ccc(Br)c(S(=O)(=O)N2CCOCC2)c1 (stereo not given) | 96.3% (inactive)
42 | COc1ccc(NC(=O)Nc2cccc3c2O[C@H](CN(C)C(=O)Nc2ccc(OC)cc2)[C@@H](C)CN([C@H](C)CO)C3=O)cc1 | 86% (inactive)
43 | C[C@@]12C(=O)Nc3ccc(Cl)cc3C(=O)N1[C@H]1c3cc(Cl)ccc3OC[C@@H]1[C@@H]2c1ccccc1 | 103% (inactive)
44 | COc1ccc(CC(=O)Nc2ccc(NC(=O)c3ccc(Br)cc3)cc2)cc1OC | 134% (inactive)
45 | Clc1ccc(Cn2nc(-c3ccccc3)nc2-c2ccccc2)cc1 | 108% (inactive)
46 | COc1ccc(-c2nc(Cn3c(SCc4ccc(C)cc4)nc4ccncc43)c(C)o2)cc1OC | 87.6% (inactive)
47 | Cc1ccc(-n2c(=O)[nH]c3c(C(N)=O)nc(-c4ccc(C)o4)nc32)cc1 | 99.1% (inactive)
48 | CCOC(=O)C(NC(=O)CC)(Nc1ccccc1)C(F)(F)F (stereo not given) | 103% (inactive)
49 | O=C(C1CCC1)N1CCc2cc(S(=O)(=O)Nc3ccc4c(c3)OCCO4)ccc21 | 116% (inactive)
50 | CCOc1cc2[nH]c(=S)n(CCC(=O)NCc3ccc(OC)cc3)c(=O)c2cc1OCC | 93.1% (inactive)
51 | O=C(c1ccc2c(c1)OCO2)N1CCC2(CC1)Oc1ccc(F)cc1C(=O)C21CC(c2ccccc2)=NO1 (stereo not given) | 139% (inactive)
52 | O=C(O)c1ccc(-c2ccc(/C=c3/sc4nc5ccccc5n4c3=O)o2)cc1Cl | 365% (inactive)
53 | CCc1c(C)nc2cc(-c3cc(OC)cc(OC)c3)nn2c1N1CCN(CCN2CCOCC2)CC1 | 130% (inactive)
54 | Nc1ncc2c(n1)-c1cc(Cl)ccc1SC2 | 102% (inactive)

Row | Compound | fluorescence response, % of control
55 | O=C(Nc1ccnc(-c2cccnc2)n1)c1cccc(Cl)c1Cl | 104% (inactive)
56 | Cc1ccc(-c2cc(C(=O)Nc3ccc(S(=O)(=O)Nc4ncccn4)cc3)c3ccccc3n2)cc1 | 96.3% (inactive)
57 | CCCCSC1=N/C(=C/c2ccsc2)C(=O)N1c1ccccc1 | 95.7% (inactive)
58 | COc1ccc2nc(C)cc(Sc3nc4ccccc4s3)c2c1 | 100% (inactive)
59 | O=C1/C(=C/c2ccc(O)c(O)c2)Oc2cc(O)ccc21 | 426% (inactive)
60 | Cc1ccc(Cn2nnc3c(=O)[nH]c(C4CCN(S(=O)(=O)c5ccc(C)cc5)CC4)nc32)cc1 | 91.7% (inactive)
61 | CS(=O)(=O)Nc1ccc(C(=O)Nc2ccc3c(c2)OCCO3)cc1 | 95.7% (inactive)
62 | CCOc1cccc(-c2nc(C(N)=O)c3[nH]c(=O)n(-c4cccc(Cl)c4)c3n2)c1O | 102% (inactive)
63 | O=C(O)Cc1ccc(NC(=O)c2ccc(NC(=O)c3ccco3)cc2)cc1 | 109% (inactive)
64 | COc1ccc(Cn2nnc3c(=O)[nH]c(C4CCN(S(=O)(=O)c5ccc(C)cc5)CC4)nc32)cc1 | 95.7% (inactive)
65 | O=C(Nc1ccc(NC(=O)c2cccs2)cc1)c1ccc2ccccc2c1 | 125% (inactive)
66 | COc1ccc(C(=O)NC2CCCc3c2cnn3-c2cccc(C)c2C)c(OC)n1 (stereo not given) | 75.9% (inactive)
67 | O=C(Nc1ccccc1C(=O)O)c1ccc(NC(=O)c2ccc(Br)o2)cc1 | 107% (inactive)
68 | COc1ccc2[nH]c3c(C)c4cc[n+](C)cc4c(C)c3c2c1 | 153% (inactive)
69 | Cc1ccc2sc(N(CCCN(C)C)C(=O)c3ccc(Br)s3)nc2c1C | 78.2% (inactive)
70 | CC1Cc2cc(S(=O)(=O)NCc3ccccc3)ccc2N1C(=O)C1CCC1 (stereo not given) | 89% (inactive)
71 | O=S(=O)(Nc1cc(Sc2ncn[nH]2)c(O)c2ccccc12)c1ccccc1 | 140% (inactive)
72 | CCC(Sc1nc2cc(OC)c(OC)cc2c(=O)n1CCc1ccc(OC)c(OC)c1)C(=O)NCCOC (stereo not given) | 83.6% (inactive)
73 | C[C@H]1CN([C@@H](C)CO)C(=O)c2cc(NC(=O)Nc3cccc4ccccc34)ccc2O[C@@H]1CN(C)Cc1ccc(-c2ccccc2)cc1 | 102% (inactive)
74 | O=C(Oc1ccc2c(=O)c(Oc3ccc4ccccc4c3)coc2c1)c1cncc(Br)c1 | 90.5% (inactive)
75 | CCOc1ccc(OCC)c(NS(=O)(=O)c2ccc3c(c2)CCN3C(=O)C2CCC2)c1 | 80.8% (inactive)
76 | COc1ccc(C2c3ccc4ccccc4c3Oc3ncn(CCN4CCOCC4)c(=N)c32)cc1 (stereo not given) | 135% (inactive)
77 | Cc1ccc(CN(Cc2cccnc2)C(=O)CN2C(=O)COc3ccccc32)o1 | 96.1% (inactive)
78 | COc1ccc(S(=O)(=O)N(C)C[C@H]2Oc3c(NC(=O)NC4CCCCC4)cccc3C(=O)N([C@H](C)CO)C[C@@H]2C)cc1 | 119% (inactive)
79 | Cc1ccc(CC2CC(=O)N(Cc3ccco3)C2=O)cc1 (stereo not given) | 93.5% (inactive)
80 | COc1cc(CNC(C)(C)CO)cc(Br)c1OCc1ccc(Cl)cc1 | 130% (inactive)
